PMC3112094, “Pro-apoptotic activity of α-bisabolol in preclinical models of primary human acute leukemia cells” (Journal of Translational Medicine, 2011)

Tests used:
leukemic blasts [1] = test: PARP cleavage (Western blot) and DNA ladder; format: cell-based, human; conditions: blasts of case Ph^-B-ALL #01 after α-bisabolol exposure
Experimental: Cells were homogenized at 4°C in 50 mM Tris-HCl (pH 8) containing 0.1% Nonidet-P40 (NP-40), 200 mM KCl, 2 mM MgCl2, 50 μM ZnCl2, 2 mM DTT, and protease inhibitors [1 mM phenylmethylsulfonyl fluoride (PMSF), 1 mg/mL leupeptin, and 1 mg/mL antipain]. Aliquots of the homogenates (40 μg total protein/lane) were loaded on SDS-polyacrylamide gels at the appropriate concentrations. Electrophoresis was performed at 100 V with a running buffer containing 0.25 M Tris-HCl (pH 8.3), 1.92 M glycine, and 1% SDS. The resolved proteins were electroblotted onto a nitrocellulose membrane using the iBlot™ system (Invitrogen, Carlsbad, CA). Membranes were then incubated with a mouse monoclonal IgG antibody to poly(ADP-ribose) polymerase (PARP) (Zymed, South San Francisco, CA), with a rabbit polyclonal IgG antibody to BID (Cell Signaling Technology, Danvers, MA) or with a rabbit polyclonal IgG antibody to α-tubulin (Cell Signaling Technology). The membranes were then washed and incubated with an anti-mouse or anti-rabbit IgG peroxidase-conjugated antibody (Cell Signaling Technology). The blots were washed again and then incubated with enhanced chemiluminescent detection reagents (Immun-Star™ WesternC™ Kit, Bio-Rad, Hercules, CA) according to the manufacturer's instructions. Proteins were detected using the ChemiDoc XRS Imaging System (Bio-Rad). […]

leukemic blasts [2] = test: Mitochondrial membrane potential, JC-1 staining; format: cell-based, human; conditions: 40 μM α-bisabolol, 3 and 5 hours, JC-1, 6 leukemias tested
Experimental: (§1) Cells resuspended in CM at 1 × 10^6/mL were treated with 40 μM α-bisabolol for 3 or 5 hours at 37°C. They were then washed with pre-warmed CM, 4 μM of the potential sensitive dye JC-1 (5,5',6,6'-tetra-chloro-1,1',3,3'-tetra-ethyl-benz-imidazolyl-carbocyanine iodide, Molecular Probes, Eugene, OR) was added, and they were then placed back into the incubator. After 30 minutes they were washed twice with pre-warmed PBS. An aliquot of each sample was spotted onto a slide, mounted with a coverslip and immediately recorded by an Axio Observer inverted microscope (Zeiss, Gottingen, DE). Visualization of JC-1 monomers (green fluorescence) and JC-1 aggregates (red fluorescence) was done using filter sets for fluorescein and rhodamine dyes (emission 488 and 550 nm respectively). Image captures of random fields using fixed imaging parameters were performed, and previously unviewed areas of cells were captured to avoid photobleaching. Image analysis was done using Axiovision 3 software. The other aliquot of each sample was resuspended in PBS and analyzed using a FACSCalibur cytometer (Becton Dickinson) equipped with a 488 nm argon laser. The emission of JC-1 monomers was detected in Fl-1 using a 530/30 nm bandpass filter, and JC-1 aggregates were detected in Fl-2 using a 585/42 nm bandpass filter. FlowJo 8.8.2 software (Tree Star, Ashland, OR) was used to analyze data.

normal lymphocytes = test: Mitochondrial membrane potential, JC-1 staining; format: cell-based, human; conditions: similar α-bisabolol concentration (40 μM)
Experimental: as §1

[3] = Solubilization of α-bisabolol in the culture medium by RP-HPLC; format: physicochemical; conditions: after 24 hours
Experimental: α-bisabolol at a purity ≥95% (GC) was purchased from Sigma-Aldrich, St. Louis, MO. The dose-dependent solubilization of α-bisabolol in the culture medium over 24 hours was determined by a reverse-phase high performance liquid chromatography (RP-HPLC) method, developed in the Department of Food Science of Bologna University, Cesena office, Italy. All measurements were performed in duplicate. The α-bisabolol concentrations indicated throughout the article represent the calculated soluble fraction in the assay.

[4] = system: HUVECs, fibroblasts and hepatocytes; test: Sparing of normal non-hematologic cells (personal observation); format: cell-based

CC(C)=CCC[C@](C)(O)[C@@H]1CC=C(C)CC1 [α-bisabolol]
PARP cleavage and DNA laddering (leukemic blasts [1]): underwent PARP cleavage and DNA laddering | mitochondrial transmembrane potential (ΔΨm) (leukemic blasts [2]): dissipates the mitochondrial transmembrane potential | mitochondrial transmembrane potential (ΔΨm) (normal lymphocytes): no mitochondrial damage | incremental ratio of measured to added concentrations ([3]; 0-250 μM added, double series of 7 concentrations): 0.65 | fraction of the α-bisabolol added measured in the culture medium ([3]; RP-HPLC): around 65% | effect of concentrations active on leukemias on normal cells [4]: spared
